Values after ≈ are worked out from the molar mass of the structure shown.
Tested on: Enterococcus faecalis (opthalmologic clinical isolated strain A-2-7)
Assay: Minimal inhibitory concentration used as indicator for T>MIC
Assay type: cell-based

- MIC: 0.39 µg/mL (≈ 1.04 µM)
SMILES: COc1c(N2CCNC(C)C2)c(F)cc2c(=O)c(C(=O)O)cn(C3CC3)c12 (racemic) [Gatifloxacin, (±)-1-cyclopropyl-6-fluoro-1,4-dihydro-8-methoxy-7-(3-methyl-1-piperazinyl)-4-oxo-3-quinolinecarboxylic acid]

Source: patent US20090247543A1, “GATIFLOXACIN-CONTAINING AQUEOUS LIQUID PREPARATION” (Kyorin Pharmaceutical Co., Ltd., priority 2008, published 2009)
